Results: BindingDB's records for doi:10.1016/s0960-894x(99)00332-7 (Warner-Lambert, 1999)

Columns and labels:
[1] = biological target: T1, Human immunodeficiency virus type 1 protease (Human immunodeficiency virus 1, UniProt Q72874); assay: Inhibitory activity was evaluated against human immunodeficiency virus type 1(HIV-1) protease at pH 6.2
[2] = biological target: T1, Human immunodeficiency virus type 1 protease; assay: ChEBML_79977; conditions: pH 4.7
Protocol: Inhibitory activity was evaluated against human immunodeficiency virus type 1(HIV-1) protease at pH 4.7

IC50 [1] | IC50 [2] | SMILES
211 nM | – | CC(C)(C)c1oc2ccccc2c1SC1C(=O)CC(CCc2ccccc2)(c2ccccc2)OC1=O (centres undefined) [3-(2-tert-Butyl-benzofuran-3-ylsulfanyl)-4-hydroxy-6-phenethyl-6-phenyl-5,6-dihydro-pyran-2-one]
– | 28 nM | CCc1c(SC2C(=O)CC(CCc3ccccc3)(c3ccccc3)OC2=O)sc2ccccc12 (centres undefined) [3-(3-Ethyl-benzo[b]thiophen-2-ylsulfanyl)-4-hydroxy-6-phenethyl-6-phenyl-5,6-dihydro-pyran-2-one]
– | 28 nM | CC(C)(C)c1cc2c(cc1SC1C(=O)CC(CCc3ccccc3)(c3ccccc3)OC1=O)CCCC2 (centres undefined) [3-(3-tert-Butyl-5,6,7,8-tetrahydro-naphthalen-2-ylsulfanyl)-4-hydroxy-6-phenethyl-6-phenyl-5,6-dihydro-pyran-2-one]
130 nM | – | CC(C)(C)c1cc2c(cc1SC1C(=O)CC(CCc3ccccc3)(c3ccccc3)OC1=O)CCC2 (centres undefined) [3-(6-tert-Butyl-indan-5-ylsulfanyl)-4-hydroxy-6-phenethyl-6-phenyl-5,6-dihydro-pyran-2-one]
